The results in this text go back to PubChem BioAssay AID463204 (Broad Institute, 2010).

SMILES strings stand for the structures. The source made the active and inactive calls.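 How the source made its calls: active means AC50 no more than ten times the top concentration tested, that is within one log above it; inconclusive means flat curve fit with activity between 30% and 70%, or invalid poor fit; inactive means AC50 beyond ten times the top tested dose.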 Some results are limits rather than exact numbers.

The experiment deals with S. cerevisiae Mot1-301 ts growth rescue, BacTiter-Glo ATP luminescence. Kind of experiment: growth rescue of Mot1-301 ts yeast, confirmation, SUMOylation pathway inhibitor project, whole organism, S. cerevisiae, Mot1-301 ts mutant, luminescence, dose retest (AID 463204).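 Further: growth at restrictive 38.5 degrees C of Mot1-301 OY566 strain; actives raise luminescence by restoring growth of the ts mutant at high temperature.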
`CN1CCN(C(=O)CCN2C(=O)/C(=C/c3ccccc3Cl)SC2=S)CC1`: the AC50 was > 42 µM (inactive).
As for `CC1CC(N(C(=O)c2ccccc2Cl)c2ccccc2)c2ccccc2N1` (centres undefined), the AC50 is > 42 µM (inactive).
As for `COc1ccc(C(=O)N2CCN(c3ccc(NC(=O)c4cccnc4)cc3)CC2)cc1`, the AC50 is > 42 µM (inactive).
For `O=C(COc1ccccc1Cl)c1ccc[nH]1`, the AC50 was > 42 µM (inactive).
The value for `Cn1cc(C(=O)N2CCCC(Nc3ccc(F)cc3)C2)c2ccccc21` (centres undefined) was > 42 µM (inactive).
`CN(NC(=O)c1ccccc1F)c1nc(C(F)(F)F)nc2ccccc12`: the AC50 is > 42 µM (inactive).
With `OC(COc1ccccc1)Cn1c2ccccc2c2ccccc21` (centres undefined), the concentration at half-maximal activity (AC50) is 35.6 µM.
The value for `CN/C(=C/[N+](=O)[O-])NCCSCc1ccc(CN(C)C)o1` was > 42 µM (inactive); that for `Cc1nc(NCCN2CCOCC2)c2nnn(Cc3c(F)cccc3Cl)c2n1` was > 42 µM (inactive).
With `Cc1ccc(C)c(-n2nnnc2SCC(=O)Nc2c(C)n(C)n(-c3ccccc3)c2=O)c1` the figure was > 42 µM (inactive).
As for `O=C(CCc1nc2sc3c(c2c(=O)[nH]1)CCCC3)N1CCN(c2ccccc2)CC1`, the AC50 is > 42 µM (inactive).
With `Cc1ccc(NS(=O)(=O)c2csc(C(N)=O)c2)cc1C` the figure was > 42 µM (inactive); with `Cc1ccnc(NC(=O)CC(c2ccccc2)c2ccccc2)n1`, 29.8 µM.
As for `COc1cccc(Nc2nc(C)nc3c2oc2ccccc23)c1`, the AC50 is > 42 µM (inactive).
With `CC(C)C1=CC(=Nc2ccc(S(N)(=O)=O)cc2)C=C(C(C)C)C1=O` the figure was > 42 µM (inactive); with `CC(=O)N(C(C)=O)c1c(C#N)c(C)n(-c2ccccc2)c1C(=O)c1ccccc1`, 20.4 µM.
Consider `CCOC(=O)c1ccc(NC(=O)CC2Sc3ncnn3C2=O)cc1` (centres undefined), for which the AC50 is 6.96 µM.
For the compound `COc1ccccc1N1CCN(C(=O)c2ccc(N3CCCCS3(=O)=O)cc2)CC1`, the AC50 is > 42 µM (inactive).
With `CSc1nsc(SCC(=O)Nc2cccc(C(=O)O)c2)n1` the figure was > 42 µM (inactive).
Take `CC(=O)NCCc1nc2cc(NC(=O)c3ccc(F)cc3)ccc2n1C`: the AC50 was > 42 µM (inactive).
Turning to `Nc1cc(Cl)ccc1N1CCOCC1`, the AC50 was > 42 µM (inactive).
Take `COCCNC(=O)C(=O)N/N=C(\C)CC(=O)Nc1cccc(C(F)(F)F)c1`: the AC50 was > 42 µM (inactive).
With `Cc1ccc(-c2csc(C3=C(O)CN(NC(=O)c4ccco4)C3=N)n2)cc1` the figure was > 42 µM (inactive); with `COc1ccc(OC)c(NC(=O)CN(C)S(=O)(=O)c2ccc(Cl)cc2)c1`, > 42 µM (inactive).
With `CCN(CC)C(=O)Cn1cc(S(=O)(=O)CC(=O)NCCc2ccc(OC)c(OC)c2)c2ccccc21` the figure was > 42 µM (inactive).
With `O=C(CCN1C(=O)S/C(=C/c2ccccc2)C1=O)Nc1ccc(O)c(C(=O)O)c1` the figure was > 42 µM (inactive); with `CC1=CC(=O)C(C(C)C)=C/C1=N/OS(=O)(=O)c1ccccc1`, 0.92 µM; with `O=[N+]([O-])c1ccccc1CN1CC=C(c2ccc(F)cc2)CC1`, > 42 µM (inactive).
On to `CCOc1ccccc1CN1CCNC(=O)C1CC(=O)NCCN1CCOC1=O` (centres undefined), for which the AC50 was > 42 µM (inactive).
With `COc1ccccc1C(=O)NC(=O)COC(=O)Cc1ccccc1[N+](=O)[O-]` the figure was > 42 µM (inactive); with `COc1ccc(NC(=O)CCCc2ccccc2)cc1OC`, > 42 µM (inactive); with `COc1cc(/C=N/NC(=S)NCc2ccco2)cc(OC)c1OC`, > 42 µM (inactive).
With `O=C(Nc1ccc2oc(-c3ccccc3F)nc2c1)c1ncn[nH]1` the figure was > 42 µM (inactive); with `CC(=O)N(C(C)=O)C1=C(C#N)C2(CCCCC2)Cc2ccccc21`, > 42 µM (inactive).
With `COc1ccccc1-n1c(O)c(/C=C2\C=Nc3ccccc32)c(=O)[nH]c1=O` the figure was > 42 µM (inactive); with `CC(NC(=O)C1CCCCC1)C(=O)NC1=NCCS1` (centres undefined), > 42 µM (inactive).
For the compound `COc1ccc2c(c1)[C@@]13CCC=C[C@H]1[C@@H](C2)NCC3`, the AC50 is > 42 µM (inactive).
The value for `CCN(CC)S(=O)(=O)c1ccc(C(=O)NCCc2cc3c(OC)ccc(OC)c3[nH]c2=O)cc1` was > 42 µM (inactive); that for `Cc1cc(C)cc(NC(=O)C2CCCN(S(=O)(=O)c3ccc4[nH]c(=O)ccc4c3)C2)c1` (centres undefined) was > 42 µM (inactive); that for `CC1CC(C)(C)NC(=S)N1CC(=O)NCc1ccc(F)cc1` (centres undefined) was > 42 µM (inactive).
For the compound `CCCCN(C/C=C/c1ccccc1OC)Cc1ccccc1`, the AC50 was > 42 µM (inactive).
With `O=C(Nc1nccs1)c1ccc(S(=O)(=O)c2ccccc2)cc1` the figure was > 42 µM (inactive); with `Cc1ccc2c(c1)N(CC(=O)NCC1CCCO1)C(=O)C(C)O2` (centres undefined), > 42 µM (inactive).
The value for `CCc1nc2ccccc2c(C(=O)OC2CCCCC2=O)c1C` (centres undefined) was > 42 µM (inactive); that for `CCCOC(=O)C1=C(C)NC2=C(C(=O)CCC2)C1c1cccs1` (centres undefined) was > 42 µM (inactive).
As for `O=C(CCSc1nnnn1-c1ccccc1)N1CCOCC1`, the AC50 is > 42 µM (inactive).
In the case of `COc1ccc(C(=O)N/C(=C\c2cc(OC)c(OC)cc2[N+](=O)[O-])C(=O)NCCO)cc1`, the AC50 is > 42 µM (inactive).
Turning to `COc1ccc(CN2CCNC(=O)C2CC(=O)NCc2cn3ccc(C)cc3n2)c(OC)c1` (centres undefined), the AC50 was > 42 µM (inactive).
The value for `S=C(NCCc1c[nH]c2ccccc12)NC1CC1` was > 42 µM (inactive); that for `C=CCN1C(=O)/C(=C\c2ccc(C)cc2)N=C1SCC(=O)NCCC` was > 42 µM (inactive); that for `CC1=C(C(=O)N2CCOCC2)C(c2ccc(O)cc2)NC(=S)N1` (centres undefined) was > 42 µM (inactive).
For `CC(NC(=O)OCc1ccccc1)C(=O)N1CC(O)CC1C(=O)O` (centres undefined), the AC50 is > 21 µM (inactive).
As to `COC(=O)C1CCN(S(=O)(=O)Cc2ccccc2)CC1`, the AC50 is > 42 µM (inactive).
`CC1CCN(Cc2nc3c(c(=O)n(C)c(=O)n3C)n2CCc2ccccc2)CC1`: the AC50 is > 42 µM (inactive).
As to `COCCCn1c(=O)c2ccccc2n(Cc2ccccc2C)c1=O`, the AC50 is > 42 µM (inactive).
On to `COc1ccc2c(c1)[C@H]1[C@H](CO2)[C@H](c2ccccc2)[C@]2(C)C(=O)Nc3ccc(F)cc3C(=O)N12`, for which the AC50 is 5.38 µM.
With `COc1ccc(-c2nnc(SCC(=O)N3CCCCC3)o2)cc1` the figure was > 42 µM (inactive).
Consider `Cc1ccc(/C=C/C(=O)O)cc1S(=O)(=O)N(CCO)CCO`, for which the AC50 was > 42 µM (inactive).
The value for `CC(=O)Nc1cccc(OCC(=O)NS(=O)(=O)c2ccc(C)cc2)c1` was > 42 µM (inactive).
With `CCOC(=O)c1cnc2oc3ccccc3n2c1=O` the figure was > 42 µM (inactive); with `Clc1ccc(CSc2nnc(CN3CCOCC3)n2-c2ccccc2)cc1Cl`, > 42 µM (inactive); with `COc1cc(NC(=O)C2=CC(c3ccco3)=NS(=O)(=O)N2C)cc(OC)c1OC`, > 42 µM (inactive).
On to `CCC1(CC)NC(=O)N(CC(=O)OCC(=O)NC(=O)c2ccccc2)C1=O`, for which the AC50 was > 42 µM (inactive).
The value for `O=C1c2ccccc2C(=O)N1CCCCSc1nc2ccccc2c(=O)n1CCCN1CCOCC1` was > 42 µM (inactive).
With `Cc1ccc(NS(=O)(=O)c2c(C)[nH]c(C)c2C(=O)N2CCCCC2)c(Cl)c1`, the AC50 was > 42 µM (inactive).
`CCc1nn(C)c(N)c1C`: the AC50 was > 42 µM (inactive).
The value for `Cc1nc2ccccc2n(CC(=O)Nc2cc(Cl)cc(Cl)c2)c1=O` was > 42 µM (inactive); that for `O=C(/C=C/c1ccc(Cl)cc1)NCc1ccncc1` was > 42 µM (inactive); that for `Clc1ccc(CONc2ncnc3nonc23)c(Cl)c1` was 5.49 µM.
On to `CCN(C(=O)Cn1c(=O)oc2ccccc21)c1cccc(C)c1`, for which the AC50 is > 42 µM (inactive).
With `CC(=O)Nc1ccccc1C(=O)C(=O)Nc1ccc(C(=O)NCC2CCCO2)cc1` (centres undefined), the AC50 was > 42 µM (inactive).
The value for `CC(C)(C)NC(=O)CC1C(=O)NCCN1Cc1c(F)cccc1Cl` (centres undefined) was > 42 µM (inactive); that for `CN1C(=O)C(=Cc2ccc(N3CCCCC3)o2)C(=O)N(C)C1=S` was > 42 µM (inactive); that for `Cc1ccccc1Cn1cc(NC(=O)c2cc3nc(-c4ccco4)cc(C(F)(F)F)n3n2)cn1` was > 42 µM (inactive).
With `Cc1cc(C)cc(OC(=O)CS(=O)c2ccc(C(F)(F)F)cc2[N+](=O)[O-])c1` (centres undefined), the AC50 is 3.48 µM.
With `Nc1ccc(Oc2ccccc2-c2ccccc2)cc1` the figure was 20.8 µM; with `COCCN(C(=O)C1CC1)c1nnc(-c2ccc(C)cc2)s1`, > 42 µM (inactive); with `O=C(NCc1ccccc1Cl)C(=O)NCC1CCCN1S(=O)(=O)c1cccs1` (centres undefined), > 42 µM (inactive).
Turning to `COCC(=O)n1nc(-c2ccc(Cl)cc2)nc1NCc1ccc(F)cc1`, the AC50 is > 42 µM (inactive).
The value for `CCOP(=O)(OCC)C(NC(=O)c1cccc(C)c1)C(Cl)(Cl)Cl` (centres undefined) was > 42 µM (inactive).
Take `O=c1[nH][nH]c(C(F)(F)F)c1C=NCc1cccs1`: the AC50 was > 42 µM (inactive).
Turning to `CCOc1ccc(Br)cc1S(=O)(=O)N1CCC(C(N)=O)CC1`, the AC50 was > 42 µM (inactive).
With `O=C1CN(C(=O)c2ccccc2F)C(c2ccccc2)c2cc(Cl)ccc2N1` (centres undefined) the figure was 1.84 µM; with `Cc1nc2c3ccccc3nc(NNC(=O)CCC(=O)N3CCCC(C)C3)n2n1` (centres undefined), > 42 µM (inactive); with `CN(C)/C(CN1CCCCC1)=C1\N=C(c2ccccc2)OC1=O`, > 42 µM (inactive).
Take `C[C@H]1CN=C(Nc2ccccc2)N1CCC1CCCC1`: the AC50 was > 42 µM (inactive).
The value for `Cc1cc(Nc2nc3c(c(=O)n(C)c(=O)n3C)n2C)n(-c2ccc(Cl)cc2)n1` was > 42 µM (inactive); that for `O=S1(=O)C=C(Sc2nnc(-c3ccccc3)o2)c2ccccc21` was 1.47 µM.
With `COc1ccccc1NC(=O)c1nn(C)cc1Br`, the AC50 is > 42 µM (inactive).
